The results in this text go back to ChEMBL document CHEMBL1221331, “Discovery of biphenylketones as dual modulators of inflammation and bone loss” (Bioorg Med Chem Lett, 2010).

Structures are written as SMILES. pIC50: −log10 of the molar value. The source made the active and inactive calls. The rule behind the calls is not given here.

For assay [1], the system named is Mus musculus. The assay can be described thus: Antiarthritic activity in mouse assessed as inhibition of collagen-induced arthritis at 10 mg/kg/day, po administered 15 days post collagen challenge. The class given is functional, organism-based.
Assay [2] deals with J774. Put plainly: Cytotoxicity against mouse J774 cells expressing RANKL signaling by Alamar blue assay. The class given is functional, cell-based. Background: The colour change of resazurin is a common sign of viable cells or microbes.
Assay [3] in a line: Cytotoxicity against mouse osteoclast cells expressing RANKL signaling by Alamar blue assay. The class given is functional, cell-based.
Assay [4] can be described thus: Inhibition of NFkappa signaling in mouse macrophages assessed as reduction in TNF-alpha-induced IkapppaB phosphorylation at 10 uM pretreated for 1 hr before TNFalpha challenge by Western blotting. Background: In western blotting, separated proteins are transferred to a membrane and probed.
A short description of assay [5]: Inhibition of NFkappa signaling in mouse macrophages assessed as reduction in TNF-alpha-induced IkapppaB phosphorylation at 50 uM pretreated for 1 hr before TNFalpha challenge by Western blotting.
For assay [6], the target named is T1, Tumor necrosis factor ligand superfamily member 11 (Mus musculus) (UniProt O35235).
T1 sequence (whole entry): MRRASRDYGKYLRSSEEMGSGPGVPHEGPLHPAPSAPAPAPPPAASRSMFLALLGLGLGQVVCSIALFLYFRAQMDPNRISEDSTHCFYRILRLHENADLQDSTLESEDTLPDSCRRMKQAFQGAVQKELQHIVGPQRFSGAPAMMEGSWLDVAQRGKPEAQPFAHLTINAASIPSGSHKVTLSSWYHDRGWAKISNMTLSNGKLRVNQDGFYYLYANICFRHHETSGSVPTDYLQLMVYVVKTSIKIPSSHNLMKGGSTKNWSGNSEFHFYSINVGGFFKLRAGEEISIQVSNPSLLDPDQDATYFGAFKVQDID
The assay can be described thus: Inhibition of NFkappa signaling in mouse macrophages assessed as reduction in RANKL-induced IkapppaB phosphorylation at 50 uM pretreated for 1 hr before RANKL challenge by Western blotting.

A short description of assay [7]: Cytotoxicity against mouse osteoblast cells by alamar blue assay. Format: cell-based.
Assay [8] addresses T1, Tumor necrosis factor ligand superfamily member 11 (Mus musculus). Put plainly: Inhibition of NFkappa signaling in mouse macrophages assessed as reduction in RANKL-induced IkapppaB phosphorylation at 10 uM pretreated for 1 hr before RANKL challenge by Western blotting.
Assay [9] concerns Mus musculus. Put plainly: Effect on ovariectomy-induced bone loss in mouse assessed as reduction in trabecular bone mineral density at 20 mg/kg/day, po (reference value: bone mineral density loss = 34%). The class given is functional, Trabecula. Further details: scale not given: the % may be the effect or the level left.
Assay [10] has as its system Mus musculus. The assay can be described thus: Antiarthritic activity in mouse assessed as inhibition of collagen-induced arthritis at 10 mg/kg/day, ip administered 15 days post collagen challenge. Format: functional, organism-based.
For assay [11], the system named is Mus musculus. Put plainly: Anti-resorptive activity against ovariectomy-induced bone loss in mouse assessed as increase in trabecular bone mineral density at 20 mg/kg/day, po relative to untreated control. The class given is functional, Trabecula.

Take `Cc1cc(S(=O)(=O)NCCCCO)ccc1-c1ccc(F)cc1F`: the inhibition result in assay [1] is “Active”.
A word on the pIC50: it is the IC50 on a negative log10 scale, so that one unit is a factor of ten. The molecule `COc1cc(F)ccc1-c1ccc(C(O)CCCCCO)cc1` (stereo not given) had a pIC50 in [2] of 4.15.
For the molecule `OCCCCCC(O)c1ccc(-c2ccccc2O)cc1` (stereo not given), the pIC50 in [2] was 4.40.
Molecule `Cc1cccc(-c2ccc(C(O)CCCCCO)cc2)c1` (stereo not given) had a pIC50 in assay [2] of less than 4.00.
Regarding `Cc1cc(-c2ccc(F)cc2F)ccc1C(=O)CCCCCO`, the pIC50 in [2] is 5.40.
With `COc1ccc(-c2ccc(C(=O)CCCCCO)cc2)c(OC)c1`, the values for the pIC50 in [2] and in assay [3] were 4.30 and 4.89, respectively.
Regarding `OCCCCCCc1ccc(-c2ccccc2)cc1`, the inhibition result in assay [4], in assay [5] and in assay [6] was “inactive” throughout.
In [2], `Cc1cc(F)ccc1-c1ccc(C(=O)CCCCCO)cc1` showed a pIC50 of 4.70.
On to `OCCCCCC(O)c1ccc(-c2ccc(O)cc2)cc1` (stereo not given), for which the pIC50 in [2] is 4.82.
`OCCCCCC(O)c1ccc(-c2ccc(Cl)cc2Cl)cc1` (stereo not given) gave a pIC50 in assay [2] of 5.10.
`OCCCCCC(O)c1ccc(-c2cccc(Cl)c2)cc1` (stereo not given) had a negative logarithm of the IC50 (pIC50) in assay [2] of less than 4.00.
`Cc1ccc(-c2ccc(C(O)CCCCCO)cc2)cc1` (stereo not given) had a pIC50 in assay [2] of 4.66.
With `O=C(CCCCCO)c1ccc(-c2ccc(Cl)cc2Cl)cc1`, the figures for the pIC50 in [2], in assay [3] and in assay [7] were 5.10, 6.10 and less than 4.00, respectively. The inhibition entry in [4], in assay [8], in assay [1] and in [10] was “Active” each time. Also, the Activity was -6% in assay [9] and 6% in assay [11].
As to `Cc1cc(C(=O)CCCCCO)ccc1-c1ccc(F)cc1F`, the pIC50 in assay [2] was 5.10; in assay [3] it was 5.82. Further, the inhibition entry in assay [4], in assay [8] and in [1] was “Active” each time.
Turning to `OCCCCCC(O)c1ccc(-c2ccc(F)cc2)cc1Cl` (stereo not given), the pIC50 in assay [2] was 5.10.
`Cc1ccccc1-c1ccc(C(O)CCCCCO)cc1` (stereo not given) had a pIC50 in assay [2] of 4.62.
On to `OCCCCCC(O)c1ccc(-c2ccccc2)cc1` (stereo not given), for which the pIC50 in [2] is 4.66; in assay [3], 5.10; in assay [7] it was less than 4.00.
For `CCOc1ccc(-c2ccc(C(O)CCCCCO)cc2)cc1` (stereo not given), the pIC50 in [2] is 4.85.
On the same count and under the same terms, the same measure for `OCCCCCC(O)c1ccc(-c2ccc(Cl)cc2)cc1` (stereo not given): 4.77; for `O=C(CCCCCO)c1ccc(-c2ccc(F)cc2Cl)cc1`: 4.82.
As to `COc1ccc(-c2ccc(C(=O)CCCCCO)cc2)cc1OC`, the pIC50 in assay [2] was 4.22; in assay [3] it was 4.85.
Take `OCCCCCC(O)c1ccc(-c2ccc(Br)cc2)cc1` (stereo not given): the negative logarithm of the IC50 (pIC50) in [2] was 4.70.
Still for that read-out and setting: under `OCCCCCC(O)c1ccc(-c2ccc(OC(F)(F)F)cc2)cc1` (stereo not given) stands 4.85.
In [2], `OCCCCCC(O)c1ccc(-c2ccc(C(F)(F)F)cc2)cc1` (stereo not given) had a pIC50 of 4.89.
Turning to `CN(C)c1ccc(-c2ccc(C(O)CCCCCO)cc2)cc1` (stereo not given), the pIC50 in assay [2] is 4.55.
In turn, `OCCCCCC(O)c1ccc(-c2ccc(F)cc2F)cc1` (stereo not given) had a pIC50 in [2] of 5.10.
On to `O=C(CCCCCO)c1ccc(-c2ccc(F)c(F)c2)cc1`, for which, in [2], the pIC50 is 4.70.
In assay [2], `OCCCCCC(O)c1ccc(-c2ccccc2F)cc1` (stereo not given) had a pIC50 of 4.66.
Turning to `O=C(CCCCCO)c1ccc(-c2ccccc2)cc1`, the results for the pIC50 in assay [2], in assay [3] and in assay [7] were 4.66, 5.05 and less than 4.00, respectively. Also, the Activity in assay [9] came out at 21%.
For the molecule `O=C(CCCCCO)c1ccc(-c2ccc(F)cc2F)cc1`, the figures for the pIC50 in assay [2], in [3] and in assay [7] were 5.22, 5.70 and less than 4.00, respectively. Moreover, the Activity in assay [9] stood at 10%.
In the case of `O=C(CCCCCO)c1ccc(-c2ccc(F)cc2F)cc1Cl`, the pIC50 is 5.15 in [2], 5.52 in assay [3] and less than 4.00 in assay [7]. For the same molecule, the Activity in assay [11] is -3%.
Take `O=C(CCCCCO)c1ccc(-c2ccc(C(F)(F)F)cc2C(F)(F)F)cc1`: in [2], the pIC50 is 4.64.
On the same count and under the same terms, the same measure for `OCCCCCC(O)c1ccc(-c2ccc(F)cc2)cc1` (stereo not given): 4.74; for `Cc1cc(F)ccc1-c1ccc(C(O)CCCCCO)cc1` (stereo not given): 4.70.
The molecule `CSc1ccc(-c2ccc(C(O)CCCCCO)cc2)cc1` (stereo not given) showed a negative logarithm of the IC50 (pIC50) in assay [2] of 4.62.
As for `OCCCCCC(O)c1ccc(-c2ccccc2)c(F)c1` (stereo not given), the pIC50 in assay [2] was 4.77.
In assay [2], `Cc1cccc(-c2ccc(C(=O)CCCCCO)cc2)c1` had a pIC50 of 4.00. The inhibition result in assay [5] and in assay [6] was “inactive” throughout.
For `Cc1cc(C(O)CCCCCO)ccc1-c1ccc(F)cc1F` (stereo not given), the figures for the pIC50 in assay [2], in assay [3] and in assay [7] were 5.10, 5.89 and less than 4.00, respectively.
`OCCCCCC(O)c1ccc(-c2ccc(F)cc2)cc1F` (stereo not given): the pIC50 in assay [2] was 4.85.
